Reference: ChEMBL document CHEMBL1144187, “Pharmacophore modeling and virtual screening for designing potential PLK1 inhibitors” (Bioorg Med Chem Lett, 2008)

target: Serine/threonine-protein kinase PLK1 (Homo sapiens, UniProt P53350)
Sequence (P53350 whole entry): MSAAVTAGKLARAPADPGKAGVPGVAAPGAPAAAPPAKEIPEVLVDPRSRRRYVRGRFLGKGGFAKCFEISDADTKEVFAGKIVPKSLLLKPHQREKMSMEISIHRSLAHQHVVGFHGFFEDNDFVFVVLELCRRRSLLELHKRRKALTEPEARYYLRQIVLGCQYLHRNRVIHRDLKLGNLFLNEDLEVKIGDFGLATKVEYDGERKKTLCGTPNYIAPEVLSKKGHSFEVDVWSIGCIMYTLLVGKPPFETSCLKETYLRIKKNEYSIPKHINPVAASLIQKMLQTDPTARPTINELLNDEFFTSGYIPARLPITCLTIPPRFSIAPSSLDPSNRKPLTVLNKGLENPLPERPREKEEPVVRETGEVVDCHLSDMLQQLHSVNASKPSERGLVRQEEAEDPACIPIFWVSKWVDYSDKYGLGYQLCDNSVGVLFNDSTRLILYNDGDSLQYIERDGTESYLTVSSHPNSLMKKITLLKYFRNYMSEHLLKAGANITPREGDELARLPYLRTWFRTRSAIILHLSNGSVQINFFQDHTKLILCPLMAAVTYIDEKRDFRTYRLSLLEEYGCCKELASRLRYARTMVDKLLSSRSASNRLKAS

| SMILES | IC50 [nM] |
| --- | --- |
| CC(Nc1ncc(C#N)c(N2CCc3ccccc3C2)n1)c1ccccc1 (configuration not stated) | 750 |
| N[C@H](COc1cncc(-c2cc3ccncc3s2)c1)Cc1c[nH]c2ccccc12 | 10000 |
| CC(C)(C)c1ccc(Nc2nc(NCc3cccnc3)ncc2-c2nn[nH]n2)cc1 | 960 |
| CCCN(CC1CC1)c1nc(NC(C)c2ccccc2)ncc1C#N (configuration not stated) | 550 |
| C=CCOC(=O)/C(C#N)=C1\S[C@@H](CNc2ccc(NC(=O)NCCN3CCCC3)cc2)C(=O)N1CC | 23 |
| FC(F)(F)c1ccc(Nc2nc(NCc3cccnc3)ncc2-c2nn[nH]n2)cc1 | 490 |
| O=c1c(O)c(-c2ccc(O)c(O)c2)oc2cc(O)cc(O)c12 [QUERCETIN] | 64000 |

The remaining lines, values ahead:

| IC50 [nM] | SMILES |
| --- | --- |
| 1040 | c1csc(CCNc2ncc(-c3nnn[nH]3)c(Nc3ccc4c(c3)OCCO4)n2)c1 |
| 500 | CCOC(=O)/C(C#N)=c1\s/c(=C/Nc2ccc(NC(=O)COC)cc2)c(=O)n1CC |
| 530 | CN1CCN(c2ccc(C(=O)Nc3[nH]nc4c3CN(C(=O)Cc3cccs3)C4)cc2)CC1 |
| 1600 | CCCN(CC1CC1)c1nc(NCc2ccc3c(c2)OCO3)ncc1C#N |
| 2000 | O=C1C(C2=C3C(=Nc4ccccc43)/C(=C\c3ccc(O)cc3)C2=O)=C2C(=Nc3ccccc32)/C1=C\c1ccc(O)cc1 |
| 1600 | CC(Nc1ncc(C#N)c(OCC2CCCCO2)n1)c1ccccc1 (configuration not stated) |
| 160 | CCOC(=O)/C(C#N)=c1\s/c(=C/Nc2ccccc2F)c(=O)n1CC |
| 74 | CCn1c(=O)/c(=C\Nc2ccc(OCCN(C)C)cc2)s/c1=C(/C#N)C(=O)NCC(F)F |
| 330 | CC(=O)N(C)c1cccc(Nc2nc(NCCc3cccs3)ncc2-c2nn[nH]n2)c1 |
| 71 | C#CNC(=O)/C(C#N)=c1\s/c(=C/Nc2ccc(OCCN(C)C)cc2)c(=O)n1CC |
